# Measurements: patent US20220007644A1, “COMPOSITIONS COMPRISING PYRIDINE CARBOXYLATE HERBICIDES WITH PHOTOSYSTEM II AND OPTIONAL HPPD INHIBITOR HERBICIDES” (Corteva Agriscience LLC, priority 2018, published 2022)
# Experiments:
# Format in all cases: in vivo
# [1] = test system: BRSNN, Brassica napus (spring rape); assay: Greenhouse postemergence herbicidal effect (visual injury, 20-22 d)
# Description: (§1) Greenhouse Trial Methodology—Evaluation of Postemergence Herbicidal Effect
# (§2) Seeds of the desired test plant species were planted in a 90:10% v/v (volume/volume) mixture of PRO-MIX® BX (Premier Tech Horticulture, Quakertown, Pa., USA) and PROFILE®GREENS GRADE™ (Profile Products LLC, Buffalo Grove, Ill., USA) planting mixture, which typically has a pH of 5.2 to 6.2 and an organic matter content of at least 50 percent, in plastic pots with a surface area of 103.2 square centimeters (cm^2). In some aspects, to help ensure good germination and healthy plants, a fungicide treatment and/or other chemical or physical treatment was applied. The plants were grown for 7-36 days (d) in a greenhouse with an approximate 14-hour (h) photoperiod which was maintained at about 23° C. during the day and 22° C. during the night. Nutrients and water were added on a regular basis and supplemental lighting was provided with overhead metal halide 1000-Watt lamps as necessary. The plants were employed for testing when they reached the second or third true leaf stage.
# (§3) Emulsifiable concentrates of each of each pyridine carboxylate herbicide (Compound A or Compound B) were prepared at 100 grams acid equivalent per liter (g ae/L). The emulsifiable concentrates also included a safener, cloquintocet-mexyl, at 120 grams active ingredient per liter (g ai/L), unless otherwise noted below. An aliquot of each emulsifiable concentrate was placed in a 25 mL glass vial and diluted with an aqueous mixture of 1.25% (v/v) ACTIROB® B esterified rapeseed oil (Bayer Crop Science, Research Triangle Park, N.C., USA) or MSO® Concentrate with LECI-TECH® methylated soybean oil (Loveland Products, Loveland, Colo., USA) to obtain concentrated stock solutions at the highest application rate for each herbicide, based upon a 12 milliliter (mL) application volume at a rate of 187 liters per hectare (L/ha). The concentrated stock solutions were further diluted with an aqueous mixture of 1.25% v/v ACTIROB® B or MSO® Concentrate with LECI-TECH® to obtain stock solutions at reduced application rates for each herbicide. Spray solutions of the herbicide combinations (Compound A or Compound B plus PS-II herbicide and optional HPPD herbicide) were prepared by adding weighed amounts or aliquots of the PS-II herbicide and optional HPPD herbicide to the stock solutions of Compound A or Compound B to form 12-mL spray solutions in two- or three-way combinations.
# (§4) The spray solutions were applied to the plant material with an overhead Mandel track sprayer equipped with 8002E nozzles calibrated to deliver 187 L/ha over an application area of 0.503 square meters (m^2) at a spray height of 18 inches ([…] centimeters (cm)) above the average plant canopy. Control plants were sprayed in the same manner with the solvent blank. All pyridine carboxylate herbicide (component a) application rates are given as “g ae/ha” and all PS II inhibitor herbicide (component b) and HPPD inhibitor herbicide (component c) application rates are given as “g ai/ha.”
# (§5) The treated plants and control plants were placed in a greenhouse as described above and watered by sub-irrigation to prevent wash-off of the test compounds. After 20-22 d, the condition of the test plants as compared with that of the control plants was determined visually and scored on a scale of 0 to 100 percent where 0 corresponds to no injury and 100 corresponds to complete kill.
# [2] = test system: CHEAL, Chenopodium album L. (common lambsquarters); assay: as above
# Description: as §1, §2, §3, §4, §5
# [3] = test system: KCHSC, Kochia scoparia (kochia); assay: as above
# Description: as §1, §2, §3, §4, §5
# [4] = test system: POLCO, Polygonum convolvulus (wild buckwheat); assay: as above
# Description: as §1, §2, §3, §4, §5
# [5] = test system: SASKR, Salsola kali (Russian thistle); assay: as above
# Description: as §1, §2, §3, §4, §5
# [6] = test system: SINAR, Sinapis arvensis (wild mustard); assay: as above
# Description: as §1, §2, §3, §4, §5
# [7] = test system: ALOMY, Alopecurus myosuroides (blackgrass); assay: as above; settings: 450 g ai/ha alone
# Description: as §1, §2, §3, §4, §5
# [8] = test system: AVEFA, Avena fatua (wild oat); assay: as above; settings: 450 g ai/ha alone
# Description: as §1, §2, §3, §4, §5
# [9] = test system: VIOTR, Viola tricolor (wild pansy); assay: as above
# Description: as §1, §2, §3, §4, §5
# [10] = test system: HORVS, Hordeum vulgare (spring barley); assay: Greenhouse postemergence phytotoxicity on crop (visual injury, 20-22 d)
# Description: as §1, §2, §3, §4, §5
# [11] = test system: TRZAS, Triticum aestivum (spring wheat); assay: as above
# Description: as §1, §2, §3, §4, §5
# [12] = test system: AMARE, Amaranthus retroflexus (pigweed); assay: Greenhouse postemergence herbicidal effect (visual injury, 20-22 d); settings: 900 g ai/ha alone
# Description: as §1, §2, §3, §4, §5
# [13] = test system: BRSNW, Brassica napus (winter rape); assay: as above; settings: 900 g ai/ha alone
# Description: as §1, §2, §3, §4, §5
# [14] = test system: CIRAR, Cirsium arvense (Canada thistle); assay: as above
# Description: as §1, §2, §3, §4, §5
# [15] = test system: MATCH, Matricaria chamomilla (wild chamomile); assay: as above; settings: 900 g ai/ha alone
# Description: as §1, §2, §3, §4, §5
# [16] = test system: ABUTH, Abutilon theophrasti (velvetleaf); assay: as above
# Description: as §1, §2, §3, §4, §5
# [17] = test system: EPHHL, Euphorbia heterophylla (poinsettia); assay: as above
# Description: as §1, §2, §3, §4, §5
# [18] = test system: SETFA, Setaria faberi (giant foxtail); assay: as above
# Description: as §1, §2, §3, §4, §5
# [19] = test system: STEME, Stellaria media (chickweed); assay: as above
# Description: as §1, §2, §3, §4, §5
structure (smiles),measurement,setting,value
"CC(C)c1nn(C(=O)NC(C)(C)C)c(=O)n1N [Amicarbazone, 4-amino-N-tert-butyl-4,5-dihydro-3-isopropyl-5-oxo-1H-1,2,4-triazole-1-carboxamide]",visual injury Obs,[1]; 175 g ai/ha alone,38%
same,visual injury Obs,[2]; 175 g ai/ha alone,38%
same,visual injury Obs,[3]; 175 g ai/ha alone,25%
same,pest or weed control at 175 g/ha,"[4]; Fallopia convolvulus, post-emergence, 175 g ai/ha alone, read-out: visual injury Obs",10%
same,visual injury Obs,[5]; 175 g ai/ha alone,0%
same,visual injury Obs,[6]; 175 g ai/ha alone,25%
"CCNc1nc(Cl)nc(NC(C)C)n1 [Atrazine, 6-chloro-N^2-ethyl-N^4-isopropyl-1,3,5-triazine-2,4-diamine, reference compound]",visual injury Obs,[7],25%
same,visual injury Obs,[8],13%
same,visual injury Obs,[1]; 450 g ai/ha alone,28%
same,visual injury Obs,[9]; 450 g ai/ha alone,20%
"CC(C)N1C(=O)c2ccccc2NS1(=O)=O [Bentazone, 3-isopropyl-1H-2,1,3-benzothiadiazin-4(3H)-one 2,2-dioxide]",visual injury Obs,[1]; 51.5 g ai/ha alone,30%
same,pest or weed control at 51.5 g/ha,"[4]; Fallopia convolvulus, post-emergence, 51.5 g ai/ha alone, read-out: visual injury Obs",20%
same,visual injury Obs,[10]; 51.5 g ai/ha alone,0%
same,visual injury Obs,[11]; 51.5 g ai/ha alone,0%
"CCC(C)n1c(=O)[nH]c(C)c(Br)c1=O (stereo not drawn) [Bromacil, 5-bromo-3-sec-butyl-6-methyluracil]",visual injury Obs,[12],20%
same,visual injury Obs,[13],5%
same,visual injury Obs,[2]; 900 g ai/ha alone,53%
same,visual injury Obs,[14]; 900 g ai/ha alone,18%
same,visual injury Obs,[3]; 900 g ai/ha alone,91%
same,visual injury Obs,[15],5%
same,pest or weed control at 900 g/ha,"[4]; Fallopia convolvulus, post-emergence, read-out: visual injury Obs",10%
same,visual injury Obs,[5]; 900 g ai/ha alone,25%
same,visual injury Obs,[6]; 900 g ai/ha alone,35%
same,visual injury Obs,[10]; 900 g ai/ha alone,10%
same,visual injury Obs,[11]; 900 g ai/ha alone,0%
"C#CCOC(=O)c1nc(-c2ccc3cc[nH]c3c2F)c(F)c(N)c1Cl [Compound B, propargyl 4-amino-3-chloro-5-fluoro-6-(7-fluoro-1H-indol-6-yl)pyridine-2-carboxylate]",visual injury,[16]; 7.5 g ae/ha alone,68%
same,visual injury,[16]; 10 g ae/ha alone,68%
same,"% visual injury, Obs","[16]; ABUTH, Compound B 10 g/ha",68%
same,visual injury,[1]; 7.5 g ae/ha alone,68%
same,visual injury,[1]; 10 g ae/ha alone,85%
same,visual injury,[2]; 7.5 g ae/ha alone,85%
same,visual injury,[2]; 10 g ae/ha alone,90%
same,"% visual injury, Obs","[2]; CHEAL, Compound B 10 g/ha",90%
same,visual injury,[14]; 7.5 g ae/ha alone,45%
same,visual injury,[14]; 10 g ae/ha alone,45%
same,"% visual injury, Obs","[14]; CIRAR, Compound B 10 g/ha",45%
same,visual injury,[17]; 7.5 g ae/ha alone,83%
same,visual injury,[17]; 10 g ae/ha alone,99%
same,"% visual injury, Obs","[17]; EPHHL, Compound B 10 g/ha",99%
same,visual injury,[3]; 7.5 g ae/ha alone,68%
same,visual injury,[3]; 10 g ae/ha alone,80%
same,"% visual injury, Obs","[3]; KCHSC, Compound B 10 g/ha",80%
same,visual injury,[4]; 7.5 g ae/ha alone,73%
same,visual injury,[4]; 10 g ae/ha alone,80%
same,"% visual injury, Obs","[4]; POLCO, Compound B 10 g/ha",80%
same,visual injury,[18]; 7.5 g ae/ha alone,70%
same,visual injury,[18]; 10 g ae/ha alone,55%
same,"% visual injury, Obs","[18]; SETFA, Compound B 10 g/ha",55%
same,visual injury,[19]; 7.5 g ae/ha alone,100%
same,visual injury,[19]; 10 g ae/ha alone,93%
same,"% visual injury, Obs","[19]; STEME, Compound B 10 g/ha",93%
same,visual injury,[9]; 7.5 g ae/ha alone,10%
same,visual injury,[9]; 10 g ae/ha alone,40%
same,"% visual injury, Obs","[9]; VIOTR, Compound B 10 g/ha",40%
